Data as given in patent US4889871A, “Alkoxy-substituted dihydrobenzopyran-2-carboxylate derivatives” (G. D. Searle & Co., priority 1988, dated 1989).
Read-outs that look alike come from different tables or passages of the source.

Experiments:
guinea pig ileum = molecular target: T1, guinea pig ileum (Cavia porcellus, UniProt Q2NNR5); assay: LTD4 antagonism in guinea pig ileum (contraction); conditions: for Kb: read-out: Guinea Pig Ileum Contraction pA2 (converted)
T1 construct: from tissue; host or cells: guinea pig ileum segments
T1 sequence (Q2NNR5 1-340): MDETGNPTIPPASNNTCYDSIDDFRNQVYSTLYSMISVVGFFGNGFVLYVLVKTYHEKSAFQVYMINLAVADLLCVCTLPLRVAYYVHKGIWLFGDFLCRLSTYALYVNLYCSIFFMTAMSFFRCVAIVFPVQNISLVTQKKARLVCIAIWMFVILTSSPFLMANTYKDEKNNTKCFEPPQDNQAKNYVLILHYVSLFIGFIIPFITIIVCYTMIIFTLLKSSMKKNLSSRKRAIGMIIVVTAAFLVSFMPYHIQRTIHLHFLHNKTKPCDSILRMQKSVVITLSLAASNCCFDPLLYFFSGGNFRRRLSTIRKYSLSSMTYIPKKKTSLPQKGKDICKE
Protocol: Fresh segments of guinea pig ileum were suspended in 2 ml. tissue baths containing oxygenated modified Tyrodes solution. […] The ileum segments were washed and rested between exposures to agonist. Following this, the tissues were incubated with a single concentration of test compound and the agonist dose-response procedure was repeated. The dose ration is a measure of the antagonist's ability to shift the agonist dose-response curve to the right. It is derived as the concentration of agonist necessary to reach a given response level in the present (A') versus the absence (A) of antagonist. For example, if the test concentration of compound had no effect on the agonist-induced response (A'=A) the dose-ratio would approximate 1. […] One dose-ratio value is determined for each strip of ileum used to test antagonist. […] Schild analysis examines the linearity of the function described by the dose-ratios written as log (A'/A) versus antagonist concentration. If linearity is confirmed and the slope approximates -1, inhibition is considered to be competitive. […] This value is considered to be a measure of the affinity of the competitive antagonist.

LTB4 receptor = molecular target: T2, LTB4 receptor (Homo sapiens, UniProt Q15722); assay: LTB4 receptor binding assay ((3H) LTB4, human neutrophils); conditions: Table 1
T2 construct: Neutrophils were purified from venous blood of normal human donors; endogenous in cells; host or cells: purified human blood neutrophils (intact cells)
T2 sequence (Q15722 whole entry): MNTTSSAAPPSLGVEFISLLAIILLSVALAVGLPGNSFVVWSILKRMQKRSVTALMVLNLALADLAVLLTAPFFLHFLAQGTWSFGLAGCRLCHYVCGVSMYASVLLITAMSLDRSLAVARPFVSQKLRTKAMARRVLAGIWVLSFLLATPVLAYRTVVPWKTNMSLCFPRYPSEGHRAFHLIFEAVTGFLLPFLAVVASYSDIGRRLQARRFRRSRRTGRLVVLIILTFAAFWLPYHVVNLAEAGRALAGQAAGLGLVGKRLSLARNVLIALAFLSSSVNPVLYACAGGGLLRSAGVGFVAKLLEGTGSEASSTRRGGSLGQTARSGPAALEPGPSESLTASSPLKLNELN
Protocol: Neutrophils (4-6×10^6) in 1 ml Hanks' balanced salt solution containing 10 mM HEPES buffer (HBSS), pH 7.4 and 30 μM nordihydroguaiaretic acid were incubated with 0.6×10^-9 M (^3 H) LTB4 in the presence or absence of test compounds. The incubation was carried out at 0° C. for 45 minutes and terminated by adding 5 ml of ice-cold HBSS followed by rapid filtration of incubation mixture under vacuum through GF/C glass fiber filters. The filters were further washed with 10 ml HBSS and radioactivity was determined. Specific binding was defined as the difference between total binding and nonspecific binding which was not displaced by 10^-7 M unlabeled LTB4. All data refer to specific binding.

human neutrophils [1] = assay: Human neutrophil degranulation assay (LTB4-induced, myeloperoxidase release); type: cell-based; conditions: Table 1, LTB4 (5×10^-8 M)
Protocol: Neutrophils were purified from venous blood of normal human donors using standard techniques of dextran sedimentation, centrifugation on Ficoll-paque® (Pharmacia) or Histopaque® sterile solution (Sigma) and hypotonic lysis of erythrocytes (Boyum, A., Isolation of Leukocytes From Human Blood: Further Observations. Scand. J. Lab. Clin. Invest., 21 (Suppl. 97): 31, 1968). The purity of isolated neutrophils was >95%.
Neutrophil degranulation was determined by measuring the release of myeloperoxidase activity into the incubation medium. Neutrophils (3×10^6) in 1 ml HBSS solution were preincubated with cytochalasin B (5 μg) at 37° C. for 5 minutes, followed by preincubation with test compounds for 7 minutes. Neutrophils were then incubated for 2 to 20 minutes with either LTB4 (5×10^-8 M) or the chemotactic peptide f-met-leu-phe (5×10^-6 M) to induce degranulation. Following incubation, samples were centrifuged and myeloperoxidase was extracted from the cell pellets by sonication in phosphate buffer containing 0.4% Triton X-100. Triton X-100 was also added to the supernatants to a concentration of 0.4%. The supernatants and the pellet - extracts were then assayed spectrophotometrically for myeloperoxidase activity by determining the rate of decomposition of H2 O2 with o-dianisidine as hydrogen donor as described by Renlund, et al. (Renlund, D. G., MacFarlane, J. L., Christensen, R. D., Lynch, R. E., and Rothstein, G., A Quantitative And Sensitive Method For Measurement Of Myeloperoxidase, Clinical Research 28:75A, 1980). Myeloperoxidase activity released into the supernatant was expressed as the percent of the average total activity (pellet plus supernatant).

LTD4 receptor = molecular target: T3, LTD4 receptor (Cavia porcellus, UniProt Q2NNR5); assay: LTD4 receptor binding assay using guinea pig lung membrane preparations; conditions: for Receptor Binding LTD4 IC50: Table 1, results are from Table 3, 10^-5 M
T3 construct: from tissue; host or cells: lung membranes of male Hartley guinea pigs
T3 sequence (Q2NNR5 1-340): T1 sequence (Q2NNR5 1-340)
Protocol: MEMBRANE PREPARATIONS: For each membrane preparation, 10-11 male Hartley guinea pigs, weighing less than 350 gm, were sacrificed by guillotine. The lungs were rapidly removed and placed in ice-cold 50 mM Trisma 7.0 buffer. After all the lungs were collected, each was probed free of bronchial tissue to at least the level of tertiary branching as observed through a dissecting lamp. The tissue was minced with a razor blade on a damp paper towel and placed into fresh ice-cold Trisma 7.0 buffer. When all the tissues had been processed, they were pooled, drained and weighed. Nine volumes of cold buffer were added and the tissue was polytroned for 6-10 second bursts with a 1 minute cool down period in an ice bath between each burst. The homogenate was filtered through a gauze pad and centrifuged at 1085× g for 15 minutes at 4° C. Supernatants were saved and centrifuged at 40,000× g for 20 minutes at 4° C. This time, supernatants were discarded and the pellets were resuspended in 30-35 ml fresh Trisma 7.0 buffer by 1-10 second bursts with the polytron. The materials were centrifuged again at 40,000× g. Supernatants were again discarded. Each pellet was resuspended again with approximately 7 ml buffer. All this material was pooled into a 100 ml polypropylene container and stirred with a magnetic stirring bar. The tubes were rinsed with small amounts of buffer and the rinse was added to the membrane preparation. The homogenized membranes were aliquoted into 1.5 ml microfuge tubes and frozen at -70° C. Three aliquots were submitted for protein determinations by FPB (fluorescamine protein binding) assay.
Unless otherwise indicated, all binding experiments were performed in a final incubation volume of 250 μl. […] Both materials were received in solutions. […] Both solutions were brought to appropriate assay concentrations by dilution in assay buffer consisting of 50 mM Trisma 7.4 with 5 mM L-cysteine and 20 mM CaCl2. Membranes were also diluted with this assay buffer. […] Diluent was added to all other appropriate control tubes. Incubations were conducted for 30 minutes at 25° C. in a shaking water bath. Termination of the reaction was achieved by pouring the incubate over 2.5 cm Whatman GF/C filters soaked in assay buffer and set over the ports of Millipore filter vacuum manifolds. Filters were rinsed with 4 ml ice cold assay buffer 3 times. The filters were removed, placed in 10 ml Aquasol scintillation cocktail and allowed to cool in the dark for 2 hours prior to counting. All samples were corrected for background and isotope decay before converting DPM determination to mass.
These values were logit-transformed and linear regression was performed on the dose-response data. All dose-response sets used to calculate IC50 values contained data from 3-6 compound concentrations. […] IC50 values were calculated from the regression equation for the line.
male guinea pig lung homogenate which was aliquoted and stored at
-70° C. The particular preparation used to test the compounds of
Protein concentrations in these assays were adjusted
to provide aproximately 0.1 nM receptor in the presence of lnM ^3
HLTD4. Incubation was conducted for 30 min.
at 24° C. and filtration methods were used to separate bound from
tested were intially solubilized in DMSO. Each compound was evaluated at
dose of 10 μM (10^-5 M) in triplicate in 2 separate assays. The

human neutrophils [2] = assay: Modified Boyden chamber chemotaxis (LTB4, human neutrophils); type: cell-based; conditions: Neutrophil
Protocol: Human neutrophils were isolated from citrated peripheral blood using standard techniques of dextran sedimentation, followed by centrifugation on Histopaque® sterile solution (Sigma) or Ficoll-paque® (Pharmacia) and hypotonic lysis of erythrocytes. A final cell suspension of 3.4×10^6 neutrophils/ml of HEPES-buffered Hanks balanced salt solution (HBSS, pH 7.3) was added to the upper well (0.8 ml) of a modified Boyden chamber (blind well). The lower well (0.2 ml), separated by a polycarbonate membrane (Nuleopore Corp.), contained HBSS or 3×10^-8 M LTB4 in the presence of absence of test compound. Following a 90 minute incubation at 37° C. in 5% CO2 -95% air, cells from the lower well were lysed and nuclei counted in a Model S-Plus-IV Coulter Counter. Percent inhibition was calculated from cell counts corrected for random migration by subtracting the mean of the HBSS control.

[3] = read-out: LTD4 Receptor Binding Activity
[4] = read-out: LTD4 Receptor Binding Percent Inhibition, Test #1, triplicate, 30 min, 24° C.
[5] = read-out: LTD4 Receptor Binding Percent Inhibition, Test #2, triplicate, 30 min, 24° C.

Kb (guinea pig ileum)	IC50 (LTB4 receptor)	IC50 (human neutrophils [1])	Receptor Binding LTD4 IC50 (LTD4 receptor)	inhibition at 10 µM (LTD4 receptor; [3])	inhibition at 10 µM (LTD4 receptor; [4])	inhibition at 10 µM (LTD4 receptor; [5])	IC50 (human neutrophils [2])	Guinea Pig Ileum Contraction pA2 (guinea pig ileum; Table 2, LTD4 agonist)	Compound
182 nM	500 nM	3700 nM	Inactive	< 45%	28.9%	34.4%	3600 nM	–	CCCc1c(OCCCOc2ccc3c(=O)cc(C(=O)O)oc3c2CCC)ccc(C(C)=O)c1OC [Example 7, 7-[3-(4-acetyl-3-methoxy-2-propylphenoxy)propoxy]-4-oxo-8-propyl-4H-1-benzopyran-2-carboxylic acid]
25.1 nM	–	–	–	–	–	–	–	–	CCCc1c(OCCCOc2ccc3c(c2CCC)OC(C(=O)O)CC3)ccc(C(C)=O)c1O (stereo not drawn) [reference compound]
316 nM	500 nM	40 nM	Inactive	< 45%	13%	23.5%	1700 nM	–	CCCc1c(OCCCOc2ccc(C(C)=O)c(OC)c2CCC)ccc2c1OC(CCC(=O)O)CC2 (stereo not drawn) [Example 20, 7-[3-(4-acetyl-3-methoxy-2-propylphenoxy)propoxy]-3,4-dihydro-8-propyl-2H-1-benzopyran-2-propanoic acid]
–	500 nM	1500 nM	–	–	–	–	6600 nM	Inactive	CCCc1c(OCCCCCOc2ccc(C(C)=O)c(OC)c2CCC)ccc2c1OC(C(=O)O)CC2 (stereo not drawn) [Example 15, 7-[[5-(4-acetyl-3-methoxy-2-propylphenoxy)pentyl]oxy]-3,4-dihydro-8-propyl-2H-1-benzopyran-2-carboxylic acid]
